pEC50: −log10 of the molar value.
System: HIV
Experiment: Anti-HIV activity (MT-4 cells, MTT)
Format: cell-based
Conditions: Human immunodeficiency virus 1, MT4, 96 h, cultured 4 days
Description: Serial dilutions of a test sample were prepared in a 96-well microplate (50 μL/well). 2.5×10^5 cells/mL of a MT-4 cell suspension was dispensed at 100 μL/well to the plate containing the test sample. Then, an HIV virus solution was dispensed at 50 μL/well. The plate was mixed with a plate mixer and cultured for 4 days in a CO2 incubator. An MTT (3-(4,5-dimethylthiazol-2-yl)-2,5-diphenyltetrazolium bromide) solution was dispensed at 30 μL/well. The plate was reacted for 1 hour in a CO2 incubator. 150 μL of the supernatant was removed from each well so as not to take up the cells. 150 μL of a cell lysis solution was added to each well and well mixed with a plate mixer until the cells were completely lysed. The absorbance of the mixed plate was measured at two wavelengths of 560 nm and 690 nm with a microplate reader.

Compound	pEC50
CCN1C(=O)c2c(O)c(=O)c(C(=O)NCc3ccc(F)cc3F)cn2N2Cc3cc(F)ccc3[C@@H]12 [II-128]	9.14
CCN1C(=O)c2c(O)c(=O)c(C(=O)NCc3c(F)cccc3F)cn2N2CCCC[C@@H]12 [II-082]	9.13
CCN1C(=O)c2c(O)c(=O)c(C(=O)NCc3ccc(F)cc3Cl)cn2N2CCCC[C@@H]12 [Compound I-038]	9.14
CCN1C(=O)c2c(O)c(=O)c(C(=O)NCc3ccc(F)cc3F)cn2N2[C@H]3CCC[C@H]3CC[C@@H]12 [II-030]	9.07
CCN1C(=O)c2c(O)c(=O)c(C(=O)NCc3ccc(F)cc3F)cn2N2Cc3ccc(F)cc3[C@@]12C [II-154]	9.17
CCN1C(=O)c2c(O)c(=O)c(C(=O)NCc3ncc(Cl)cc3F)cn2N2CCCC[C@@H]12 [II-076]	8.48
CC(C)N1C(=O)c2c(O)c(=O)c(C(=O)NCc3c(F)cc(F)cc3F)cn2N2C[C@@H](C)CC[C@@H]12 [II-001]	9.00
Cc1c(F)ccc(CNC(=O)c2cn3c(c(O)c2=O)C(=O)N(C)[C@@H]2CCCCN23)c1F [II-054]	9.47
CCN1C(=O)c2c(O)c(=O)c(C(=O)NCc3c(F)cc(F)cc3F)cn2N2[C@H](C)CCC[C@@H]12 [II-053]	8.85
O=C(NCc1ccc(F)cc1F)c1cn2c(c(O)c1=O)C(=O)N(C1CCCC1)[C@@H]1CCCCN12 [Compound I-026]	8.46
CCN1C(=O)c2c(O)c(=O)c(C(=O)NCc3ccc(F)cc3F)cn2N2CCCOC[C@@H]12 [II-107]	8.64
CCN1C(=O)c2c(O)c(=O)c(C(=O)NCc3c(F)ccc(C#N)c3F)cn2N2CCCC[C@@H]12 [II-050]	8.55
CCN1C(=O)c2c(O)c(=O)c(C(=O)NCc3cc(F)cc(F)c3F)cn2N2CCCC[C@@H]12 [II-142]	9.13
O=C(NCc1ccc(F)cc1F)c1cn2c(c(O)c1=O)C(=O)N(CC(F)(F)F)[C@@H]1CCCCN12 [Compound I-053]	9.03
C[C@H]1CC[C@H]2N(C)C(=O)c3c(O)c(=O)c(C(=O)NCc4c(F)cc(F)cc4F)cn3N2C1 [II-007]	9.21
CCN1C(=O)c2c(O)c(=O)c(C(=O)NCc3ccc(F)cc3F)cn2N2[C@H](C)CC[C@@H]12 [II-068]	9.21
CN1C(=O)c2c(O)c(=O)c(C(=O)NCc3cccc(Cl)c3F)cn2N2CC[C@H](C(F)(F)F)C[C@@H]12 [II-151]	8.80
CCN1C(=O)c2c(O)c(=O)c(C(=O)NCc3ccc(F)cc3F)cn2N2[C@@H]3CCC[C@@H]3C[C@@H]12 [II-025]	8.96
C[C@@H]1CCC[C@H]2N(C)C(=O)c3c(O)c(=O)c(C(=O)NCc4c(F)cc(F)cc4F)cn3N12 [II-094]	9.24
O=C(NCc1ccc(F)cc1F)c1cn2c(c(O)c1=O)C(=O)N(C1CCC(F)(F)CC1)[C@@H]1CCCCN12 [Compound I-052]	8.26
CCN1C(=O)c2c(O)c(=O)c(C(=O)NCc3ccccc3F)cn2N2CCCC[C@@H]12 [II-092]	9.48

Compound	pEC50
CN1C(=O)c2c(O)c(=O)c(C(=O)NCc3c(F)cc(F)cc3F)cn2N2C[C@H]3C[C@H](C3)[C@@H]12 [II-158]	9.57
CCN1C(=O)c2c(O)c(=O)c(C(=O)N[C@@H](C)c3ccc(F)cc3F)cn2N2CCCC[C@@H]12 [Compound I-030]	7.44
CCN1C(=O)c2c(O)c(=O)c(C(=O)NCc3cc(F)c(F)cc3F)cn2N2CCCC[C@@H]12 [Compound I-036]	8.85
CCN1C(=O)c2c(O)c(=O)c(C(=O)NCc3ccc(F)cc3F)cn2N2CCN(C(=O)OC(C)(C)C)C[C@@H]12 [Compound I-009]	8.92
C[C@@H](N1C(=O)c2c(O)c(=O)c(C(=O)NCc3ccc(F)cc3F)cn2N2CCCC[C@@H]12)C(F)(F)F [Compound I-041]	9.18
C[C@@H]1CCN2[C@@H](C1)N(C)C(=O)c1c(O)c(=O)c(C(=O)NCc3c(F)cc(F)cc3F)cn12 [II-130]	9.89
CCN1C(=O)c2c(O)c(=O)c(C(=O)NCc3c(F)cc(F)cc3F)cn2N2Cc3ccccc3[C@@H]12 [II-097]	9.00
CCN1C(=O)c2c(O)c(=O)c(C(=O)NCc3ccc(F)c(Cl)c3F)cn2N2CCOC[C@@H]12 [Compound I-004]	9.25
CCN1C(=O)c2c(O)c(=O)c(C(=O)NCc3ccc(F)cc3F)cn2N2CCCC(C)(C)[C@@H]12 [Compound I-020]	8.89
CN1C(=O)c2c(O)c(=O)c(C(=O)NCc3ccc(Cl)cc3F)cn2N2CCCC[C@@H]12 [II-045]	8.70
CCN1C(=O)c2c(O)c(=O)c(C(=O)NCc3ccc(F)cc3F)cn2N2[C@H](C)c3cc(F)ccc3[C@@H]12 [II-155]	8.92
CCN1C(=O)c2c(O)c(=O)c(C(=O)NCc3ccc(F)cc3F)cn2N2CCC3(C[C@@H]12)OCCO3 [II-067]	9.21
CN1C(=O)c2c(O)c(=O)c(C(=O)NCc3cccc(Cl)c3F)cn2N2Cc3ccccc3[C@@H]12 [II-063]	8.44
CC[C@@H](NC(=O)c1cn2c(c(O)c1=O)C(=O)N(CC)[C@@H]1CCCCN12)c1ccc(F)cc1F [II-137]	7.48
O=C(NCc1ccc(F)cc1F)c1cn2c(c(O)c1=O)C(=O)N(CCCF)[C@@H]1CCCCN12 [Compound I-047]	8.82
CCN1C(=O)c2c(O)c(=O)c(C(=O)NCc3ccc(F)cc3F)cn2N2C[C@H](C)C[C@@H]12 [II-123]	8.80
CCN1C(=O)c2c(O)c(=O)c(C(=O)NCc3ccc(F)cc3F)cn2N2CCOC[C@@H]12 [Compound I-001]	9.28
CN1C(=O)c2c(O)c(=O)c(C(=O)NCc3ccc(F)c(F)c3F)cn2N2CCCC[C@@H]12 [II-074]	9.15
CCN1C(=O)c2c(O)c(=O)c(C(=O)NCc3c(F)cc(F)cc3F)cn2N2CC[C@H](C)C[C@@H]12 [II-069]	9.05
CCN1C(=O)c2c(O)c(=O)c(C(=O)NCc3cccc(Cl)c3)cn2N2CCCC[C@@H]12 [II-134]	8.52
CCN1C(=O)c2c(O)c(=O)c(C(=O)NCc3ccc(F)cc3F)cn2N2[C@@H]3COC[C@@H]3C[C@@H]12 [II-145]	9.17

Now from value to molecule:

pEC50	Compound
9.64	CCN1C(=O)c2c(O)c(=O)c(C(=O)NCc3nccc(Cl)c3F)cn2N2CCCC[C@@H]12 [II-019]
9.37	O=C(NCc1ccc(F)cc1F)c1cn2c(c(O)c1=O)C(=O)N(CC(F)F)[C@@H]1CCCCN12 [Compound I-046]
8.70	CCN1C(=O)c2c(O)c(=O)c(C(=O)NCc3cc(F)c(F)c(F)c3)cn2N2CCCC[C@@H]12 [Compound I-037]
9.11	COC[C@@H](C)N1C(=O)c2c(O)c(=O)c(C(=O)NCc3cccc(Cl)c3F)cn2N2CC[C@H](C)C[C@@H]12 [II-002]
9.21	CN1C(=O)c2c(O)c(=O)c(C(=O)NCc3c(F)cc(F)cc3F)cn2N2CC3(CC3)C[C@@H]12 [II-139]
9.25	CCN1C(=O)c2c(O)c(=O)c(C(=O)NCc3ccc(F)cc3F)cn2N2CCCC[C@@]12CC [II-159]
9.31	CCN1C(=O)c2c(O)c(=O)c(C(=O)NCc3ccc(F)cc3F)cn2N2[C@H](C)CC[C@@]12C [II-131]
9.30	CCN1C(=O)c2c(O)c(=O)c(C(=O)NCc3c(F)cccc3Cl)cn2N2CCCC[C@@H]12 [II-148]
8.49	CCN1C(=O)c2c(O)c(=O)c(C(=O)NCc3ccc(Cl)cc3F)cn2N2CCCC[C@@H]12 [Compound I-035]
8.89	CCN1C(=O)c2c(O)c(=O)c(C(=O)NCc3ccc(F)c(Cl)c3)cn2N2CCCC[C@@H]12 [Compound I-034]
8.92	CCN1C(=O)c2c(O)c(=O)c(C(=O)NCc3ccc(F)cc3F)cn2N2C[C@@]3(CCOC3)C[C@@H]12 [II-149]
8.00	CCN1C(=O)c2c(O)c(=O)c(C(=O)NCc3ccc(Br)cc3F)cn2N2CCCC[C@@H]12 [Compound I-014]
8.44	CCN1C(=O)c2c(O)c(=O)c(C(=O)N[C@H](C)c3cccc(Cl)c3F)cn2N2CCCC[C@@H]12 [II-012]
8.43	CN1C(=O)c2c(O)c(=O)c(C(=O)NCc3ccnc(Cl)c3F)cn2N2CCCC[C@@H]12 [II-103]
8.68	C[C@@H]1CC[C@H]2N(C)C(=O)c3c(O)c(=O)c(C(=O)NCc4ccc(Cl)cc4F)cn3N12 [II-138]
8.66	CCN1C(=O)c2c(O)c(=O)c(C(=O)NCc3ccc(F)cc3F)cn2N2C3CCC(CC3)[C@@H]12 [II-118]
8.64	CCN1C(=O)c2c(O)c(=O)c(C(=O)NCc3c(Cl)ccc(Cl)c3F)cn2N2CCCC[C@@H]12 [Compound I-049]
8.85	C[C@H](N1C(=O)c2c(O)c(=O)c(C(=O)NCc3ccc(F)cc3F)cn2N2CCCC[C@@H]12)C(F)(F)F [II-043]
7.92	CCN1C(=O)c2c(O)c(=O)c(C(=O)N[C@H](C)c3ccc(F)cc3F)cn2N2CCCC[C@@H]12 [Compound I-029]
9.14	CCN1C(=O)c2c(O)c(=O)c(C(=O)NCc3cccc(F)c3F)cn2N2CCCC[C@@H]12 [Compound I-042]
8.96	O=C(NCc1ccc(F)cc1F)c1cn2c(c(O)c1=O)C(=O)N(C[C@H]1CCCO1)[C@@H]1CCCCN12 [Compound I-022]
8.68	CCN1C(=O)c2c(O)c(=O)c(C(=O)NCc3ccc(F)cc3F)cn2N2CCN(C(=O)NC)C[C@@H]12 [II-110]
9.14	O=C(NCc1ccc(F)cc1F)c1cn2c(c(O)c1=O)C(=O)N(CCF)[C@@H]1CCCCN12 [Compound I-045]
8.85	CCN1C(=O)c2c(O)c(=O)c(C(=O)NCc3ccc(F)c(Cl)c3F)cn2N2CCCC[C@@H]12 [Compound I-003]
8.72	O=C(NCc1ccc(F)cc1F)c1cn2c(c(O)c1=O)C(=O)N(CC1CC1)[C@@H]1CCCCN12 [Compound I-028]
8.80	CCN1C(=O)c2c(O)c(=O)c(C(=O)NCc3ccc(F)cc3F)cn2N2CCN(c3ncccn3)C[C@@H]12 [II-146]
9.14	C[C@H]1CCN2[C@@H](C1)N(C)C(=O)c1c(O)c(=O)c(C(=O)NCc3ccc(F)cc3F)cn12 [II-113]

Source: patent US11649236B2, “Polycyclic carbamoylpyridone derivative” (Shionogi & Co., Ltd., priority 2018, dated 2023)
